Data from patent publication US12290496B2, “Compounds for use in preventing or treating athlete overtraining” (TDELTAS LIMITED, priority 2018, dated 2025).

Legend:
[1] = Circulating (R)-3-hydroxybutyrate levels and gut uptake after consumption of esters; format: in vivo
[2] = Peak heart rate during 90 second all-out isokinetic sprint (FIG. 4); format: in vivo, human; conditions: 90 second all-out isokinetic sprints, 3-week training overload period
Protocol: (§1) A randomized placebo-controlled (ketone ester versus placebo) intervention study was performed. The study involved a pretest and a posttest with a 3-week training overload period in between (Table 1A). During this 3-week period, subjects received either ketone ester or an isocaloric placebo (long chain triglyceride) after each training session and 30 minutes before sleep. The conditions were blinded to both the subjects and the investigators until completion of all the experiments.
(§2) Immediately following each training session and 30 min before sleep, subjects received a recovery drink (6D Recovery Shake, Medix, Oudenaarde, Belgium) containing 1 g carbohydrates per kg body weight, plus 0.35 g whey protein isolate per kg body weight. Additionally, subjects received 0.35 g per kg body weight of a ketone ester drink or an isocaloric placebo (PL; long chain triglycerides) as a separate drink to be ingested together with the carbohydrate/protein recovery drink. The ketone ester supplement (ΔG®) delivered pure D-β-hydroxybutyrate-R 1,3 butanediol monoester. These nutritional supplements have been extensively tested before (see for instance Cox et al; Cell Metab 24: 256-268, 2016).
FIG. 4A gives the absolute values, and FIG. 4B gives the decrease in heart rate (Δ) from the pre-test values. […]

[3] = acute ingestion, elite cyclists; cited from earlier work
[4] = 30-minute time trial after 2 h submaximal constant-load exercise bout, day 18 (FIG. 3); format: in vivo, human
Protocol: as §1, §2
FIG. 3 illustrates the 30 minute time trial performance results at the end of a 120 minute constant-load endurance training session at day 18 of the training period. […]

[5] = Food (energy) intake during 3-week training period (FIG. 7); format: in vivo, human; conditions: placebo energy intake stable
Protocol: as §1, §2

noradrenaline = test: Urinary total nocturnal noradrenaline excretion (FIG. 9b); format: in vivo, human; conditions: before and during 3-week overreaching/overtraining period; consistently elevated in placebo
Protocol: as §1, §2
Total nocturnal urine (10 pm to 8 am) was collected during the night before each experimental session in flasks prepared with 10 ml hydrochloric acid. […]

[6] = 30-minute simulated cycling time trial (TT30min) performance (FIG. 2); format: in vivo, human
Protocol: as §1
Three weeks prior to the start of the study, subjects underwent a sport medical screening by a certified sports physician. One week later, the subjects participated in three familiarization sessions (Table 1B) to get familiar with the experimental procedures. […] Respiratory gas exchange was measured continuously during the test (Cortex Metalyzer II, Leipzig, Germany), and the highest oxygen uptake measured over a 30-s period defined as the maximal oxygen uptake (VO2max). […]
For the first experimental session, after a 10-min warming up (5 min at 100 W, plus 5 min at 150 W), the subjects performed a TT30min. […] Immediately after completion of the TT, subjects (1) scored the rate of perceived exertion on a 15-point Borg scale and completed a gastrointestinal symptom questionnaire. […]

[7] = Submaximal heart rate during first 5 minutes of 30-min time trial (FIG. 5); format: in vivo, human; conditions: 3-week training overload period
Protocol: as §1
For the first experimental session, after a 10-min warming up (5 min at 100 W, plus 5 min at 150 W), the subjects performed a TT30min. During the first 5 minutes (t0-t5), the workload was set equal to the mean power output achieved during the TT30min in the last familiarization session. From t5 to t25, the subjects adjusted the workload at 5-min intervals according to their subjective perception of fatigue. From t25 to t30, 1-min adjustments were allowed so as to be able to establish full exhaustion by the end of the TT. Immediately after completion of the TT, subjects (1) scored the rate of perceived exertion on a 15-point Borg scale and completed a gastrointestinal symptom questionnaire. Following 15 min of active recovery (cycling @ 50 W), subjects performed a W30s. One day later, the subjects returned to the laboratory for the second experimental session. During this session a VO2max test was performed. […]

[8] = Training volume / work per week and per session (FIG. 10, 11); format: in vivo, human
Protocol: Following the pre-test, participants were enrolled in a 3-week supervised and fully-controlled exercise training program. Each week of the training program consisted of six training days with an interval training in the morning and an endurance training in the evening, for a total of twelve training sessions per week (Table 2).
The number of maximal sprints in the HIIT sessions increased from 4 in week 1, to 5 in week 2 and 6 in the final week. Endurance sessions were performed in the evening and consisted of 150 min of cycling at 65% VO2max. During the 3-week training period the subjects abstained from any exercise other than the exercise prescribed by the study protocol.
as §2

[9] = DXA scanning before and after 3-week training period (FIG. 6); format: in vivo, human; conditions: 3-week training overload period
Protocol: as §1, §2

leptin = test: Leptin levels in fasted plasma samples (FIG. 8); format: in vivo, human
Protocol: as §1, §2
Blood samples (2×5 ml) were taken from an arm vein by use of the Venoject® system into BD Vacutainer® tubes. […]

[10] = Blood ketone (β-hydroxybutyrate) levels during 3-week training overload study (FIG. 1); format: in vivo, human; conditions: 30 minutes following ingestion; days 6, 13 and 20
Protocol: as §1
as §2, with “The ketone ester supplement (ΔG®) delivered pure D-β-hydroxybutyrate-R 1,3 butanediol monoester. These nutritional supplements have been extensively tested before (see for instance Cox et al; Cell Metab 24: 256-268, 2016).” left out
Furthermore, during TT30min small capillary blood samples (5 μl) were collected at 5-min time intervals via a small puncture in the earlobe. These microsamples were immediately analyzed for blood lactate concentration (Lactate Pro®, Arkray, Kyoto, Japan), blood glucose and βHB levels (GlucoMen Lx plus-meter with Lx glucose or Lx β-ketone strips, Menarini Diagnostics, Firenze, Italy). […]

## (R)-3-hydroxybutyrate-glycerol partial ester
[1]; upon consumption of a drink
  circulating levels of (R)-3-hydroxybutyrate in the blood: high circulating levels
  level of uptake in the gut: surprisingly high level of uptake

## C[C@@H](O)CCOC(=O)C[C@@H](C)O [ketone ester, (R)-3-hydroxybutyl (R)-3-hydroxybutyrate]
[2]
  decline in maximum (peak) heart rate from pre-test, versus placebo: significantly less
[3]
  endurance performance: improve endurance performance
[4]; day 18 of training period
  increase in mean power output compared with placebo drink: ~15%
[4]; end of 120 minute constant-load endurance session, day 18
  average power in 30 minute time trial versus placebo group: significantly higher
[5]
  daily energy intake from week 1 to week 3: spontaneously increased
noradrenaline
  urinary total nocturnal noradrenaline excretion: stable at baseline levels
[6]; following 1 week of tapering after 3-week training overload period, not increased in placebo group
  increase in power output from pre-test: ~8%
[6]; post-test and follow-up 1
  average power during 30 minute time trial versus placebo: significantly higher
[7]
  decline in submaximal heart rate vs. pre-test, versus placebo: significantly less
[1]; in vivo
  circulating levels of (R)-3-hydroxybutyrate in the blood: high circulating levels
  level of uptake in the gut: surprisingly high level of uptake
[8]; from day 20
  workload effected during each single training session versus placebo: higher
[8]; week 3
  training load versus placebo: definitely higher
[8]; weeks 1 and 2
  training load versus placebo: no difference
[9]
  bone mineral content in post-test compared to placebo: increased bone mineral content
  changes in body fat compared with placebo: did not alter
  changes in lean body mass compared with placebo: did not alter
leptin; all timepoints after the pretest
  leptin levels compared to placebo: higher at all timepoints
leptin; significantly dropped in placebo group
  leptin levels from pretest to posttest: constant
[10]
  blood β-hydroxybutyrate levels versus placebo drink: significantly higher
